Experimental data published in patent publication US6136817A, “Opioid receptor antagonist compounds” (Astra AB, priority 1994, dated 2000).
Counter-ions that a name gives are not always drawn.

Biological target: T1, δ opioid receptors (Mus musculus, UniProt P32300)
T1 construct: antagonism of the delta-selective agonist DPDPE
Test: opioid antagonism against receptor selective agonists (DAMGO, μ; Cl 977, κ; DPDPE, δ) in electrical stimulated guinea-pig ileum (GPI) and mouse vas deferens (MVD) preparations
Assay type: cell-based
Description: δ-Antagonism was assessed using the electrical stimulated guinea-pig ileum longitudinal muscle preparation (GPI; containing μ and κ opioid receptors) and mouse vas deferens preparation (MVD; containing μ, κ and δ opioid receptors) (H. Schmidhammer et al., J. Med. Chem., Vol. 32: 418-421, 1989; H Schnmidhammer et al., J. Med. Chem., Vol. 33:1200-1206,1990). The activity of the compound 1 of the Examples for inhibiting the suppression of contraction of the organs by three receptor selective agonists (DAMGO, μ; Cl 977, κ; DPDPE, δ) was measured.

T1 sequence (P32300 whole entry): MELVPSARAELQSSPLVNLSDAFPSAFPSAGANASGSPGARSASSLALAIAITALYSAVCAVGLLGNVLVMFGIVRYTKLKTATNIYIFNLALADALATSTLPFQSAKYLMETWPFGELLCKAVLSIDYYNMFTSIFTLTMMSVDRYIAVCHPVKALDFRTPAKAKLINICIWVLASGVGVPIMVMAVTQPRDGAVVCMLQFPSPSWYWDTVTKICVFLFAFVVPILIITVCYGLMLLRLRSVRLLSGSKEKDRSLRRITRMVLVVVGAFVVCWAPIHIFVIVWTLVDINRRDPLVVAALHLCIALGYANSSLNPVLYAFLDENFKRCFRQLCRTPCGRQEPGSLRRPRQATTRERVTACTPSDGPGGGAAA

CCO[C@@]12Cc3c([nH]c4ccccc34)[C@]3(C)Oc4c(O)ccc5c4[C@@]31CCN(CC1CC1)[C@@H]2C5 [compound 1, 17-(Cyclopropylmethyl)-6,7-dehydro-4,5α-epoxy-14-ethoxy-3-hydroxy-5-methyl-6,7-2',3'-indolomorphinan hydrochloride]
opioid antagonism (inhibiting the suppression of contraction of the organs by receptor selective agonists) (GPI and MVD preparations, agonists DAMGO (μ), Cl 977 (κ), DPDPE (δ)): δ-selective opioid antagonism
κ/δ selectivity ratio (antagonism of Cl 977 (κ) vs DPDPE (δ)): very good
μ/δ selectivity ratio (antagonism of DAMGO (μ) vs DPDPE (δ)): very good
